Results as given in patent US20260053811A1, “METHODS OF TREATING HYPERTENSION IN OBESE SUBJECTS” (Mineralys Therapeutics, Inc., priority 2022, published 2026).

System: hypertensive subjects
Assay: Seated automated office blood pressure (AOBP) in randomized, placebo-controlled, dose-ranging study
Format: in vivo, human
Settings: Part 1, 12.5 mg QD
Experimental: A randomized, double-blinded, placebo-controlled, dose-ranging, multicenter study was conducted to evaluate the effect of orally administered Compound A HBr on blood pressure for the treatment of hypertension in male and female subjects ≥18 years of age.
The study consists of two parts. For enrollment into Part 1 of the study, a subject's value of plasma renin activity (PRA) must be ≤1 ng/mL/h based on morning measurement. If the value of PRA >1 ng/mL/h based on morning measurement, then subjects may be eligible to enter Part 2 of the study.
For Part 1, 163 enrolled subjects ≥18 years of age were randomized into 6 equal treatment groups (1:1:1:1:1:1) to 12.5 mg BID, 25 mg BID, 12.5 mg QD, 50 mg QD, 100 mg QD, or placebo. After a review of interim clinical data, the 2 lowest dose levels (12.5 mg QD and 12.5 mg BID) were stopped for future randomization due to a lack of consistent meaningful reduction of blood pressure, but the patients randomized to that point remained in the study through completion. Thus, after the review of interim clinical data, subjects were randomized into 4 equal treatment groups (1:1:1:1) to 25 mg BID, 50 mg QD, 100 mg QD, or placebo.
For Part 2, 36 enrolled subjects ≥18 years of age were randomized (5:1) to either 100 mg QD Compound A HBr or placebo such that the Compound A HBr treatment group consisted of approximately 30 subjects and the placebo treatment group will consist of approximately 6 subjects.
Subjects orally administered the assigned study drug (Compound A HBr or placebo) according to the assigned dosing regimen for 8 weeks beginning on Study Day 1. All subjects in Part 1 (regardless of dosing group) received BID dosing to preserve the integrity of the blind; active drug is administered as the morning dose for all QD dose groups. Subjects returned to the research facility or were seen by the clinical investigator or approved home health care professional at the end of Study Weeks 1, 2, 3, 4, 5, 6, 7, and 8 (±2 days) for protocol-defined efficacy and safety assessments and procedures, assessment of adverse events (AEs), and confirmation of compliance with study drug usage. Subjects also completed a telephone visit and blood pressure (BP) check at home approximately 3 days post last dose of study drug. Subjects attended up to 14 full clinic visits, including a pre-Screening visit, a Screening/start of Placebo Run-in visit, a second visit during Placebo Run-in, a clinic visit to initiate the ABPM procedure, a Randomization visit, 8 weekly visits during double-blind treatment, and an end-of-study visit scheduled 4 weeks after the last study treatment for final efficacy and safety assessments.
An automated oscillometric sphygmomanometer device was used to measure the subjects' systolic and diastolic blood pressure in office after approximately 5 minutes of rest in the seated position.
The primary endpoint is the change in office-measured (mean of last 2 of 5 unattended measurements using an automated oscillometric sphygmomanometer device after approximately 5 minutes of rest in the seated position) systolic blood pressure (SBP) from baseline to the end of Study Week 8.
Secondary endpoints of this study were: • (a) Change in 24-hour ambulatory blood pressure monitoring (ABPM) parameters (systolic and diastolic) from baseline to the end of Study Week 7. • (b) Change in office-measured SBP from baseline to the end of Study Weeks 1, 2, 3, 4, 5, 6, and 7. • (c) Change in office-measured diastolic blood pressure (DBP) from baseline to the end of Study Weeks 1, 2, 3, 4, 5, 6, 7, and 8. • (d) Proportion of subjects who achieve office-measured BP of ≤130/80 mm Hg by the end of Study Week 8.

In the case of `CC(=O)N[C@H]1CC[C@H](NC(=O)CN2CCN(c3nncc(-c4ccc(C)cc4)n3)CC2)CC1` [Compound A HBr], the “Mean (SD) Automated Office-Measured Systolic Blood Pressure at Wk 8” value (Age 65-79 yr) is reported as 135.63 (15.23) mmHg, the “Mean (SD) Change from Baseline at Week 8 in Automated Office-Measured Diastolic Blood Pressure” value (Age 65-79 yr) is reported as −5.06 (7.49) mmHg and the “Mean (SD) Change from Baseline at Week 8 in Automated Office-Measured Systolic Blood Pressure” value (Age 65-79 yr) is reported as −8.50 (14.04) mmHg. The “Mean (SD) Automated Office-Measured Diastolic Blood Pressure at Wk 8” value (Age <65 yr) was 82.63 (20.67) mmHg, the “Mean (SD) Automated Office-Measured Systolic Blood Pressure at Wk 8” value (Age <65 yr) was 144.88 (25.16) mmHg and the “Mean (SD) Change from Baseline at Week 8 in Automated Office-Measured Diastolic Blood Pressure” value (Age <65 yr) was −2.19 (9.98) mmHg. The “Mean (SD) Change from Baseline at Week 8 in Automated Office-Measured Systolic Blood Pressure” value (Age <65 yr) was −5.75 (22.93) mmHg, the “Mean (SD) Automated Office-Measured Diastolic Blood Pressure at Wk 8” value (Age ≥80 yr) was 93.50 (37.48) mmHg and the “Mean (SD) Automated Office-Measured Systolic Blood Pressure at Wk 8” value (Age ≥80 yr) was 145.00 (42.43) mmHg. The “Mean (SD) Change from Baseline at Week 8 in Automated Office-Measured Diastolic Blood Pressure” value (Age ≥80 yr) was 13.00 (37.48) mmHg, the “Mean (SD) Change from Baseline at Week 8 in Automated Office-Measured Systolic Blood Pressure” value (Age ≥80 yr) was −4.75 (39.95) mmHg and the “Mean (SD) Automated Office-Measured Diastolic Blood Pressure at Wk 8” value (BMI 25−30 kg/m^2) was 76.00 (6.22) mmHg. The “Mean (SD) Change from Baseline at Week 8 in Automated Office-Measured Diastolic Blood Pressure” value (BMI 25−30 kg/m^2) was −4.64 (7.81) mmHg, the “Mean (SD) Automated Office-Measured Diastolic Blood Pressure at Wk 8” value (BMI <25 kg/m^2) was 73.00 (NE) mmHg and the “Mean (SD) Change from Baseline at Week 8 in Automated Office-Measured Diastolic Blood Pressure” value (BMI <25 kg/m^2) was −1.50 (NE) mmHg. For the same compound, the “Mean (SD) Automated Office-Measured Diastolic Blood Pressure at Wk 8” value (BMI >30 kg/m^2) was 86.10 (21.92) mmHg, the “Mean (SD) Change from Baseline at Week 8 in Automated Office-Measured Diastolic Blood Pressure” value (BMI >30 kg/m^2) was 0.20 (16.85) mmHg and the “Mean (SD) Automated Office-Measured Systolic Blood Pressure at Wk 8” value (BMI at baseline 25-30 kg/m^2) was 134.14 (18.96) mmHg. For the same compound, the “Mean (SD) Change from Baseline at Week 8 in Automated Office-Measured Systolic Blood Pressure” value (BMI at baseline 25-30 kg/m^2) was −7.71 (19.07) mmHg, the “Mean (SD) Automated Office-Measured Systolic Blood Pressure at Wk 8” value (BMI at baseline <25 kg/m^2) was 137.00 (NE) mmHg and the “Mean (SD) Change from Baseline at Week 8 in Automated Office-Measured Systolic Blood Pressure” value (BMI at baseline <25 kg/m^2) was −11.50 (NE) mmHg. The “Mean (SD) Automated Office-Measured Systolic Blood Pressure at Wk 8” value (BMI at baseline >30 kg/m^2) was 145.80 (24.73) mmHg, the “Mean (SD) Change from Baseline at Week 8 in Automated Office-Measured Systolic Blood Pressure” value (BMI at baseline >30 kg/m^2) was −5.80 (22.31) mmHg and the “Mean (SD) Automated Office-Measured Diastolic Blood Pressure at Wk 8” value (Race Black or AA) was 85.00 (19.41) mmHg. For the same compound, the “Mean (SD) Automated Office-Measured Systolic Blood Pressure at Wk 8” value (Race Black or AA) was 147.50 (22.06) mmHg, the “Mean (SD) Change from Baseline at Week 8 in Automated Office-Measured Diastolic Blood Pressure” value (Race Black or AA) was −0.69 (7.56) mmHg and the “Mean (SD) Change from Baseline at Week 8 in Automated Office-Measured Systolic Blood Pressure” value (Race Black or AA) was −1.44 (16.04) mmHg. The “Mean (SD) Automated Office-Measured Diastolic Blood Pressure at Wk 8” value (Race Other) was 78.60 (15.76) mmHg, the “Mean (SD) Automated Office-Measured Systolic Blood Pressure at Wk 8” value (Race Other) was 135.40 (21.55) mmHg and the “Mean (SD) Change from Baseline at Week 8 in Automated Office-Measured Diastolic Blood Pressure” value (Race Other) was −2.65 (17.00) mmHg. For the same compound, the “Mean (SD) Change from Baseline at Week 8 in Automated Office-Measured Systolic Blood Pressure” value (Race Other) was −11.20 (22.29) mmHg, the “Mean (SD) Automated Office-Measured Diastolic Blood Pressure at Wk 8” value (Seated SBP Tertile High) was 84.22 (23.90) mmHg and the “Mean (SD) Change from Baseline at Week 8 in Automated Office-Measured Diastolic Blood Pressure” value (Seated SBP Tertile High) was −1.06 (18.28) mmHg. For the same compound, the “Mean (SD) Automated Office-Measured Diastolic Blood Pressure at Wk 8” value (Seated SBP Tertile Low) was 78.50 (7.48) mmHg, the “Mean (SD) Change from Baseline at Week 8 in Automated Office-Measured Diastolic Blood Pressure” value (Seated SBP Tertile Low) was −4.17 (6.69) mmHg and the “Mean (SD) Automated Office-Measured Diastolic Blood Pressure at Wk 8” value (Seated SBP Tertile Middle) was 79.00 (5.57) mmHg. The “Mean (SD) Change from Baseline at Week 8 in Automated Office-Measured Diastolic Blood Pressure” value (Seated SBP Tertile Middle) was 0.83 (5.62) mmHg, the “Mean (SD) Automated Office-Measured Diastolic Blood Pressure at Wk 8” value (Sex Female) was 75.11 (8.40) mmHg and the “Mean (SD) Automated Office-Measured Systolic Blood Pressure at Wk 8” value (Sex Female) was 136.00 (17.23) mmHg. The “Mean (SD) Change from Baseline at Week 8 in Automated Office-Measured Diastolic Blood Pressure” value (Sex Female) was −4.83 (8.08) mmHg, the “Mean (SD) Change from Baseline at Week 8 in Automated Office-Measured Systolic Blood Pressure” value (Sex Female) was −9.22 (10.54) mmHg and the “Mean (SD) Automated Office-Measured Diastolic Blood Pressure at Wk 8” value (Sex Male) was 87.78 (21.70) mmHg. For the same compound, the “Mean (SD) Automated Office-Measured Systolic Blood Pressure at Wk 8” value (Sex Male) was 145.56 (26.10) mmHg, the “Mean (SD) Change from Baseline at Week 8 in Automated Office-Measured Diastolic Blood Pressure” value (Sex Male) was 1.28 (17.06) mmHg and the “Mean (SD) Automated Office-Measured Systolic Blood Pressure at Wk 8” value (Systolic Blood Pressure Tertile at Baseline High) was 146.33 (26.41) mmHg.
